Results taken from ChEMBL document CHEMBL4627392, “Streptomyces albogriseolus SY67903 Produces Eunicellin Diterpenoids Structurally Similar to Terpenes of the Gorgonian Muricella sibogae, the Bacterial Source” (J Nat Prod, 2020).
Activity calls are given as the source filed them. No cut-off for these calls is given here.

Key:
Assay type in all cases: functional, cell-based
A549 = test: Cytotoxicity against human A549 cells after 44 hrs by MTT assay
HepG2 = test: Cytotoxicity against human HepG2 cells after 44 hrs by MTT assay
MDA-MB-231 = test: Cytotoxicity against human MDA-MB-231 cells after 44 hrs by MTT assay; conditions: MDA-MB-231, 44 h
MCF7 = test: Cytotoxicity against human MCF7 cells after 44 hrs by MTT assay; conditions: MCF7, 44 h
NCI-H292 = test: Cytotoxicity against human NCI-H292 cells after 44 hrs by MTT assay
HCT-116 = test: Cytotoxicity against human HCT116 cells after 44 hrs by MTT assay

Q: Which results are given for C=C1CCC(=C(C)C)[C@H]2/C=C(/C(=O)OC)CC/C=C(\C(=O)O)[C@H](O)C[C@H]12?
A: Activity (A549): Active; Activity (HepG2): Active; IC50 (MDA-MB-231): 8.6 µM; IC50 (MCF7): 5.3 µM; Activity (NCI-H292): Active; Activity (HCT-116): Active

Q: Which IC50 (A549; A549, 44 h) does the source give for C=C1CC[C@@H](C(C)C)[C@H]2/C=C(/C(=O)OC)CC/C=C(\C(=O)O)[C@H](O)C[C@H]12 here?
A: Its IC50 is over 100 µM.

Q: And the IC50 (HepG2; HepG2, 44 h)?
A: Its IC50 is over 100 µM.

Q: What about the IC50 (MDA-MB-231) of the same compound?
A: The IC50 was over 100 µM.

Q: What about the IC50 (MCF7) of the same compound?
A: The IC50 was over 100 µM.

Q: And the IC50 (NCI-H292; NCI-H292, 44 h)?
A: Its IC50 is over 100 µM.

Q: And the IC50 (HCT-116; HCT-116, 44 h)?
A: The IC50 was over 100 µM.
